Test results: patent US20230406840A1, “N-(2-(3-CYANO-2-AZABICYCLO[3.1.0]HEXAN-2-YL)-2-OXOETHYL)QUINOLINE-4-CARBOXAMIDES” (AstraZeneca AB, priority 2022, published 2023)
In brackets after ≈: the same amount, converted by molar mass.

How the values were obtained:
hFAP = hFAP (Homo sapiens (Human), UniProt Q12884);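 note: fluorescence read after incubating enzyme with substrate at room temperature, IC50 fitted from percent inhibition against log concentration with a one-site model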
Kinetic solubility = format: physicochemical; settings: kinetic from dmso stock
Protocol: Kinetic solubility was measured as described in Comput Aided Mol Des 2015, 29, 795.

[1] = Caco-2 AB intrinsic permeability; format: in vitro ADME; settings: human, A to B, read-out: Caco2 AB Intrinsic Papp
Protocol: (§1) Caco-2 cell permeability was measured as described in Mol/Pharm 2017, 14, 1601.

Human Hepatocytes (hHep) = test: Metabolic stability in human hepatocytes (hHep); format: in vitro ADME
Protocol: Metabolic stability in human hepatocytes was measured as described in Xenobiotica 2010, 40, 637.

[2] = Caco-2 bidirectional (ABBA) permeability; format: in vitro ADME; settings: human; for Papp A→B: A to B, read-out: Caco2 Bidirectional (ABBA) A to B Papp; for Papp B→A: B to A, read-out: Caco2 Bidirectional (ABBA) B to A Papp; for efflux ratio: read-out: Caco2 Bidirectional (ABBA) Efflux Ratio
Protocol: as §1

[3] = target: human dipeptidylpeptidase 7 (hDPP7) (Homo sapiens (Human), UniProt Q9UHL4); test: hDPP7 inhibition assay; format: biochemical; settings: highest compound concentration 10 μM; n = 1
Protocol: Compounds were tested in a biochemical inhibition assay using human dipeptidylpeptidase 7 (hDPP7) enzyme (BPS Bioscience, #80070) and the substrate Ala-Pro-amino-methylcoumarin (BPS Bioscience, #80305) at 10 μM FAC. The enzymatic reactions were conducted in duplicate at rt for 20 min in 50 μL assay buffer (10 mM Tris-HCl, pH 7.4, 10 mM MgCl2, 1 mM MnCl2). Compound solutions (in DMSO) at 10 CR, 3-fold dilution series were prepared in assay buffer ten-fold higher than the final concentration, and 5 μL of the dilution was added to a 50 μL reaction so that the highest compound concentration was 10 μM FAC and the concentration of DMSO was 1% in all wells. The plates were read on a PHERAstarPLUS (BMG) using kinetic mode with excitation 340 nm and emission 460 nm. Data were analyzed in Graph Pad Prism. Raw data signals were normalized using 1% DMSO as 0% control and no enzyme as 100% inhibitor control.

[4] = target: human dipeptidylpeptidase 9 (hDPP9) (Homo sapiens (Human), UniProt Q86TI2); test: hDPP9 inhibition assay; format: biochemical; settings: highest compound concentration 10 μM; n = 1
Chain of human dipeptidylpeptidase 9 (hDPP9) (Q86TI2 whole entry): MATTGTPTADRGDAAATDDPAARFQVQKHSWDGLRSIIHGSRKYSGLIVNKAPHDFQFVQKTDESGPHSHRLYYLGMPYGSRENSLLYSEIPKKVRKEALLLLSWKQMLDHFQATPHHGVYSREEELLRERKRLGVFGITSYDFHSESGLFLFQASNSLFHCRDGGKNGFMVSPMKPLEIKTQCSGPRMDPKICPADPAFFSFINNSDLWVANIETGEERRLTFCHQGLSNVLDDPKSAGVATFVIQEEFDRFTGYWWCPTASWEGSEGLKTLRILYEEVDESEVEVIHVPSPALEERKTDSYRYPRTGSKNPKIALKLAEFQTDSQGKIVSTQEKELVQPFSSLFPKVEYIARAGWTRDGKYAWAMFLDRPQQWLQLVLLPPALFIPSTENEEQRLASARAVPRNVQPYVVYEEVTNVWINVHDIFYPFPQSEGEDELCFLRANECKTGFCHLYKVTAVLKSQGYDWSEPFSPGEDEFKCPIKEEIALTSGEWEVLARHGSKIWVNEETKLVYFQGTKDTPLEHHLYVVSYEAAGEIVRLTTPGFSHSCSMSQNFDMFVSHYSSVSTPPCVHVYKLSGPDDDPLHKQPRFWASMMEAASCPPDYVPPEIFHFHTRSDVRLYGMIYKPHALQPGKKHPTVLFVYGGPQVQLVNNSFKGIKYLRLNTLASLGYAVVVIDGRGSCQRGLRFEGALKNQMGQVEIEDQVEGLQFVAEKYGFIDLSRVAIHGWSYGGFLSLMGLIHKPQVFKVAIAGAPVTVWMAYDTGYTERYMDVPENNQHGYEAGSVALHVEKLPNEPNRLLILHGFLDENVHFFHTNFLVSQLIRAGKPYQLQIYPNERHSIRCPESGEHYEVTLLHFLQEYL
Protocol: Compounds were tested in a biochemical inhibition assay using human dipeptidylpeptidase 9 (hDPP9) enzyme (R&D, #5419-SE-010) and the substrate Gly-Pro-amino-methylcoumarin (Enzo #BML-P189-0005) at 10 μM FAC. The enzymatic reactions were conducted in duplicate at rt for 30 min in 50 μL assay buffer (50 mM Tris, pH 7.5, 0.1% BSA). Compound solutions (in DMSO) at 10 CR, 3-fold dilution series were prepared in assay buffer ten-fold higher than the final concentration, and 5 μL of the dilution was added to a 50 μL reaction so that the highest compound concentration was 10 μM FAC and the concentration of DMSO was 1% in all wells. The plates were read on a PHERAstarPLUS (BMG) using kinetic mode with excitation 340 nm and emission 460 nm. Data were analyzed in Graph Pad Prism. […] Raw data signals were normalized using 1% DMSO as 0% control and no enzyme as 100% inhibitor control.

[5] = Metabolic stability in human liver microsomes (HLM); format: in vitro ADME
Protocol: Metabolic stability in HLM was measured as described in J Comput Aided Mol Des 2015, 29, 795.

[6] = target: human dipeptidylpeptidase 8 (hDPP8) (Homo sapiens (Human), UniProt Q6V1X1); test: hDPP8 inhibition assay; format: biochemical; settings: single concentration 10 μM; n = 1
Chain of human dipeptidylpeptidase 8 (hDPP8) (Q6V1X1 whole entry): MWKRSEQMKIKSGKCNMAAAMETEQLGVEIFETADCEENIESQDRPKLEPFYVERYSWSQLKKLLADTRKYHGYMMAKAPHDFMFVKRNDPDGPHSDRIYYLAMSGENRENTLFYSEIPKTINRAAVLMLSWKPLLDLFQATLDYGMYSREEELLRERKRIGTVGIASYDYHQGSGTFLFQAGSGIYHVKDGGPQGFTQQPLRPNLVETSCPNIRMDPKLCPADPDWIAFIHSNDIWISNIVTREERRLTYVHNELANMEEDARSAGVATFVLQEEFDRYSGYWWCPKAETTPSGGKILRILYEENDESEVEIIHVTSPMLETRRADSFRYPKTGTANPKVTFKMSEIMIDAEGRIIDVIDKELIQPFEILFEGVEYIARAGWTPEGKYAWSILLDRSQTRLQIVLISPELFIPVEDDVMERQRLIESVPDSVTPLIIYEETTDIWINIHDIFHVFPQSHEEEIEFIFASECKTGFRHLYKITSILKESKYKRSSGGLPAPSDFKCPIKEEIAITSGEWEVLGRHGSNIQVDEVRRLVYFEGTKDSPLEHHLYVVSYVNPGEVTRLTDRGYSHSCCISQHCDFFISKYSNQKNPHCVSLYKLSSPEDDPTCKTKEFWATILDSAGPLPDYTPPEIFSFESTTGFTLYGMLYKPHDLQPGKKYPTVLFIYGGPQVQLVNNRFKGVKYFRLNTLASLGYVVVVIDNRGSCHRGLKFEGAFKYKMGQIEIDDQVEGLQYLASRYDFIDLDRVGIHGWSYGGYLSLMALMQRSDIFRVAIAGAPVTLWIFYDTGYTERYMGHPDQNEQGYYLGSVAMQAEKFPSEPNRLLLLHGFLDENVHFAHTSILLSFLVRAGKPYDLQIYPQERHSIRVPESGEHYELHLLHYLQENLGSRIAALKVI
Protocol: Compounds were tested in a biochemical inhibition assay using human dipeptidylpeptidase 8 (hDPP8) enzyme (BPS Bioscience, #80800) and the substrate Gly-Pro-amino-methylcoumarin (Enzo #BML-P189-0005) at 10 μM FAC. The enzymatic reactions were conducted in duplicate at rt for 20 min in 50 μL assay buffer (50 mM Tris, pH 7.5, 0.1% BSA). Compound solutions (in DMSO), were prepared in assay buffer ten-fold higher than the final concentration, and 5 μL of the dilution was added to a 50 μL reaction so that the compound concentration was 10 μM FAC and the concentration of DMSO was 1% in all wells. The plates were read on a PHERAstarPLUS (BMG) using kinetic mode with excitation 340 nm and emission 460 nm. Data were analyzed in Graph Pad Prism. Raw data signals were normalized using 1% DMSO as 0% control and no enzyme as 100% inhibitor control.

FAP Mouse Plasma = FAP Mouse Plasma (Mus musculus (Mouse), UniProt P97321); test: FAP plasma inhibition assay, mouse plasma; format: biochemical; settings: mouse plasma dilution 1:67, Ala-Pro-AMC 75 μM; n = 1
Chain of FAP Mouse Plasma (P97321 24-761 limits assumed): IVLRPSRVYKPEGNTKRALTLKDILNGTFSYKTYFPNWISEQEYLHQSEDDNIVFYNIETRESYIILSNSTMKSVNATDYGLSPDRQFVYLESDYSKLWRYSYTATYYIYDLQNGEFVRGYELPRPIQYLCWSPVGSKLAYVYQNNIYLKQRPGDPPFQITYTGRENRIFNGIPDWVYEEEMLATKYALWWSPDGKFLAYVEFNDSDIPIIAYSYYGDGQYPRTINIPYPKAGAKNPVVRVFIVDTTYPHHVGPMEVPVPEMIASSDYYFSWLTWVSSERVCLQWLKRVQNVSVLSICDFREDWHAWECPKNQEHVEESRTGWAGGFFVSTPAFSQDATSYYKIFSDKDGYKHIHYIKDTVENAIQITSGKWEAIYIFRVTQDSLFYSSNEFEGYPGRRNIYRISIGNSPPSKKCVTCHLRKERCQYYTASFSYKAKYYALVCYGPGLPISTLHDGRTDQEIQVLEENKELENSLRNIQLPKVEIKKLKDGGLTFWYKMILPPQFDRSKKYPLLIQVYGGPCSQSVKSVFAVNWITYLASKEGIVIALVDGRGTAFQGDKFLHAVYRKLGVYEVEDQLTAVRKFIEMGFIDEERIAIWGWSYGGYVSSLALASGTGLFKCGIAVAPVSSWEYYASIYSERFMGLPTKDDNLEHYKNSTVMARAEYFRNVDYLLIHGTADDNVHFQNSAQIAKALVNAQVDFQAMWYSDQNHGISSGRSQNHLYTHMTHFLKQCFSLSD
Protocol: This assay was adapted from the method described in Example 53 for detection of FAP target engagement enzyme activity in plasma. Plasma (anticoagulant K2EDTA) was used as the enzyme source: Human plasma (Pooled from AZ Biobank) and Mouse plasma (AZ AST Biobank). 384-Well black fluotrack PS plates (Greiner 781076) were used. 20 μL diluted plasma (Human plasma dilution 1:40, Mouse plasma dilution 1:67) in buffer (PBS, 0.1% BSA) was added to 0.6 μL compounds (in DMSO). Compounds were tested using 10 CR, 3-fold dilution series from 500 nM FAC. Two replicates for each assay point were run on the same plate. A fluorescence blank read was taken before substrate addition. Substrate, Ala-Pro-AMC (ARI-3144) stock solution (20 mM in DMSO) was diluted in buffer (PBS, 0.1% BSA) to 150 μM concentration and 20 μL added giving 75 μM FAC. Plates were incubated for 40 min at rt in the dark. The plates were read on a Beckman Paradigm® reader with excitation 360 nm and emission 465 nm. Data were analyzed in Excel (IDBS XLfit Add-In) using a one site dose response model (4-parameter logistic fit). […] Raw data signals were normalized using 1.5% DMSO in diluted plasma as 0% control and 1.5% DMSO in buffer (no plasma) as 100% inhibitor control.

hFAP (M39-A757) = hFAP (M39-A757) (Homo sapiens (Human), UniProt Q12884)
Chain of hFAP (M39-A757) (Q12884 39-757): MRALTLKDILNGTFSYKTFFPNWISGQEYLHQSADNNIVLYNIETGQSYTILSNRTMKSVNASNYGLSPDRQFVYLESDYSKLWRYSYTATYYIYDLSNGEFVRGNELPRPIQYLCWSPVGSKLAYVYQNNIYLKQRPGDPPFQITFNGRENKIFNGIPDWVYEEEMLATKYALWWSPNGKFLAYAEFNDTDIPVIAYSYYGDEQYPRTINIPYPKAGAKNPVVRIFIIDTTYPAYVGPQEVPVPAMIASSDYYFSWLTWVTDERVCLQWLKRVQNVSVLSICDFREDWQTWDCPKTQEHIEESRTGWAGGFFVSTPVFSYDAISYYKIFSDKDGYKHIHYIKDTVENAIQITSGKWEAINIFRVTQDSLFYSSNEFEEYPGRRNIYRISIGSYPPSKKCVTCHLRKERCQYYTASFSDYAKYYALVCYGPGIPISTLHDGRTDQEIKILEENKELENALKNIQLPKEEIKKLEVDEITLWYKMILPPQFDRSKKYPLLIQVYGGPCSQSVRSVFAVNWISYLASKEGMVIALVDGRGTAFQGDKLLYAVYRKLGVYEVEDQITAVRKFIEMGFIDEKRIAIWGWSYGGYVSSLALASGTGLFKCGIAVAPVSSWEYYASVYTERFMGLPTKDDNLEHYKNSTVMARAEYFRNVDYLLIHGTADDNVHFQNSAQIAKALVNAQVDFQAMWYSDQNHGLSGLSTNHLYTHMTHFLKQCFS
Protocol: Compounds were tested in a direct binding assay using 8K surface plasmon resonance biosensor (GE Healthcare) at 20° C. Immobilization of hFAP (M39-A757) on a CMD200M sensor chip (Xantec) was performed using standard amine coupling procedure in immobilization buffer (10 mM HEPES, 150 mM NaCl, 0.05% Tween20, pH 7.4). The surface was washed with 10 mM NaOH, 1M NaCl before being activated with EDC/NHS (GE Healthcare), followed by immobilization of hFAP (in 10 mM Acetate pH 5.0). Finally, the surface was deactivated by ethanolamine. Immobilization levels of hFAP were around 4000-6000 RU. The reference spot was treated as described, omitting the injection of hFAP. Compound concentration series were injected over the immobilized protein in increasing concentrations (2-500 nM) using single cycle kinetics in running buffer (20 mM TRIS, 150 mM NaCl, 0.05% Tween20, 1% DMSO, pH 7.4). Interaction models were fitted globally to the experimental traces, enabling determination of kon, koff and Kd.

Chain of hFAP (Q12884 38-760): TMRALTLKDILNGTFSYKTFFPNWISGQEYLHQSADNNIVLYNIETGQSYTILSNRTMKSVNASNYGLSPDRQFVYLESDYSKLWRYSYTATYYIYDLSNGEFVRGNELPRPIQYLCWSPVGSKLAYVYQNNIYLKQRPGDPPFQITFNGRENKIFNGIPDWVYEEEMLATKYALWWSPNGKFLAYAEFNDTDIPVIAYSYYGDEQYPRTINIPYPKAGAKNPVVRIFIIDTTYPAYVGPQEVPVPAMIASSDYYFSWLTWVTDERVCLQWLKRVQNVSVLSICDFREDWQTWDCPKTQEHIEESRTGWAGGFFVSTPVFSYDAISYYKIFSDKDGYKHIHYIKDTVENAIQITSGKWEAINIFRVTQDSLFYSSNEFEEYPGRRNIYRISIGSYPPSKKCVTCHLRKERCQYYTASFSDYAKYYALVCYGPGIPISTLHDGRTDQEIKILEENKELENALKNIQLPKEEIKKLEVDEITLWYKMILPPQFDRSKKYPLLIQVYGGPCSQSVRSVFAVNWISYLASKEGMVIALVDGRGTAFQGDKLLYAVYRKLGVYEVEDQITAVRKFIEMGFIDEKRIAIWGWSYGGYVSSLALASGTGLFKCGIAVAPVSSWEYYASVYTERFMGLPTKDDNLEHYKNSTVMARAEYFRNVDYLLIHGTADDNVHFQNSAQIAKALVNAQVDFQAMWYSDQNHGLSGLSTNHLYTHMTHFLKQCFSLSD

IC50 (hFAP) [nM] | solubility (Kinetic solubility) [µM] | Papp [1] [×10⁻⁶ cm/s] | hHep CLint (Human Hepatocytes (hHep)) [μL/min/1E6] | Papp A→B [2] [×10⁻⁶ cm/s] | Papp B→A [2] [×10⁻⁶ cm/s] | efflux ratio [2] | IC50 [3] [nM] | IC50 [4] [nM] | microsomal CLint [5] [µL/min/mg] | hDPP8 Activity at Compound Concentration 10 μM [6] | IC50 (FAP Mouse Plasma) [nM] | Kd (hFAP (M39-A757)) [nM] | Compound
< 1.6 | > 1000 | 60 | <1 | 24 | 19 | 0.8 | > 10 | > 10 | < 3.2 | Not Active | 0.73 |  | Cc1ccc2c(C(=O)NCC(=O)N3[C@H](C#N)C[C@@H]4C[C@@H]43)ccnc2c1 [Example 20, N-(2-((1S,3S,5S)-3-Cyano-2-azabicyclo[3.1.0]hexan-2-yl)-2-oxoethyl)-7-methylquinoline-4-carboxamide]
0.49 | 570 (≈ 220 µg/mL) | 9.3 | <1 | 2.8 | 28 | 10 |  |  | < 3 |  | 2.8 | 5.5 | N#C[C@@H]1C[C@@H]2C[C@@H]2N1C(=O)CNC(=O)c1ccnc2cc(C3(C#N)CC3)ccc12 [Example 40, N-(2-((1S,3S,5S)-3-Cyano-2-azabicyclo[3.1.0]hexan-2-yl)-2-oxoethyl)-7-(1-cyanocyclopropyl)quinoline-4-carboxamide]
